Reference: patent publication US20250214977A1, “STAT6 INHIBITORS AND USES THEREOF” (Kymera Therapeutics, Inc., priority 2024, published 2025)

System: Phosphorylation of STAT6 in human A549 cells
Assay: Phosphorylated STAT6 (pSTAT6) flow cytometry assay in human A549 cells
Type: cell-based
Conditions: read-out: STAT6 IL4 pSTAT6 assay in A549 cells: Average IC50
Source text: Example 3. Phosphorylated STAT6 (pSTAT6) Flow Cytometry Assay in Human A549 Cells
Phosphorylation of STAT6 in human A549 cells was quantitatively measured using flow cytometry technology.

Structure (SMILES) | IC50 [nM]
COc1ccncc1-c1cc(C2=CCCN(C(=O)CCn3ccnn3)C2)c(F)c2[nH]c(C(=O)N3CCN(c4ccc(F)c(OC)c4F)CC3)cc12 [Example I-492] | > 100000
COc1ccncc1-c1cc(C2=CCCN(C(=O)CCn3ccnn3)C2)c(F)c2[nH]c(C(=O)N3CCN(c4cccnc4C#N)CC3)cc12 [Example I-493] | > 100000
COc1ccccc1-c1cc(C2=CCCN(C(=O)CCn3cccn3)C2)c(F)c2[nH]c(C(=O)N3CCN(c4cc5cc[nH]c5nc4C#N)CC3)cc12 [Example I-494] | > 100000
COc1ccccc1-c1cc(C2=CCCN(C(=O)CCn3ccnn3)C2)c(F)c2[nH]c(C(=O)N3CCN(c4ncccc4C4CC4)CC3)cc12 [Example I-495] | > 100000
COc1ccncc1-c1cc(C2=CCCN(C(=O)CCn3ccnn3)C2)c(F)c2[nH]c(C(=O)N3Cc4cnn(C)c4C3)cc12 [Example I-496] | > 100000
COc1ccncc1-c1cc(C2=CCCN(C(=O)CCc3nccs3)C2)c(F)c2[nH]c(C(=O)N3CCN(c4ncccc4OC)CC3)cc12 [Example I-497] | 10000 to 100000
COc1cc(F)cnc1N1CCN(C(=O)c2cc3c(Cl)cc(C4=CCCN(C(=O)CCn5ccnn5)C4)c(F)c3[nH]2)CC1 [Example I-499] | 10000 to 100000
COc1ccncc1-c1cc(C2=CCCN(C(=O)CCn3ccnn3)C2)c(F)c2[nH]c(C(=O)N3CCN(c4nc(C)c(F)cc4OC)CC3)cc12 [Example I-500] | > 100000
COc1ccccc1-c1cc(C2=CCCN(C(=O)CCn3ccnn3)C2)c(F)c2[nH]c(C(=O)N3CCN(C4CC(F)(F)C4)CC3)cc12 [Example I-501] | 10000 to 100000
COc1cnccc1-c1cc(C2=CCCN(C(=O)CCn3ccnn3)C2)c(F)c2[nH]c(C(=O)N3Cc4cnn(C)c4C3)cc12 [Example I-502] | 10000 to 100000
COc1ccccc1-c1cc(C2=CCCN(C(=O)CCn3cccn3)C2)c(F)c2[nH]c(C(=O)N3Cc4cnn(C)c4C3)cc12 [Example I-503] | 10000 to 100000
CCn1cc2c(n1)CN(C(=O)c1cc3c(-c4ccccc4OC)cc(C4=CCCN(C(=O)CCn5ccnn5)C4)c(F)c3[nH]1)C2 [Example I-505] | 10000 to 100000
COc1ccccc1-c1cc(C(=O)N2CCN(c3ncc(F)cc3OC)CC2)cc2cc(C3=CCCN(C(=O)CCn4ccnn4)C3)n(CC3CC3)c12 [Example I-506] | 10000 to 100000
CCn1ncc2c1CN(C(=O)c1cc3c(-c4ccccc4OC)cc(C4=CCCN(C(=O)CCn5ccnn5)C4)c(F)c3[nH]1)C2 [Example I-507] | 10000 to 100000
COc1ccccc1-c1cc(C2=CCCN(C(=O)CCn3ccnn3)C2)c(F)c2[nH]c(C(=O)N3CCN(c4[nH]ncc4OC)CC3)cc12 [Example I-508] | < 100
COc1ccccc1-c1cc(C2=CCCN(C(=O)CCn3ccnn3)C2)c(F)c2[nH]c(C(=O)N3Cc4c(C)nn(C)c4C3)cc12 [Example I-509] | < 100
COc1ccccc1-c1cc(C2=CCCN(C(=O)CCn3ccnn3)C2)c(F)c2[nH]c(C(=O)N3CCN(c4ncc(F)c(F)c4OC)CC3)cc12 [Example I-510] | < 100
COc1ccccc1-c1cc(C2=CCCN(C(=O)CCn3ccnn3)C2)c(F)c2[nH]c(C(=O)N3CC=C(C4CC4)CC3)cc12 [Example I-511] | < 100
COc1ccccc1-c1cc(C2CN(C(=O)CCn3ccnn3)CC(F)(F)C2)c(F)c2[nH]c(C(=O)N3Cc4cnn(C)c4C3)cc12 (stereo not drawn) [Example I-512] | < 100

Structure (SMILES) | IC50 [nM]
COc1ccncc1-c1cc(C2CN(C(=O)CCn3ccnn3)CC(F)(F)C2)c(F)c2[nH]c(C(=O)N3CCN(c4ncc(F)cc4OC)CC3)cc12 (stereo not drawn) [Example I-513] | < 100
CCc1cc(C)ncc1-c1cc(C2=CCCN(C(=O)CCn3cccn3)C2)c(F)c2[nH]c(C(=O)N3CCN(c4nc(C)ccc4OC)CC3)cc12 [Example I-514] | < 100
CCc1cc(C)ncc1-c1cc(C2=CCCN(C(=O)CCn3cccn3)C2)c(F)c2[nH]c(C(=O)N3CCN(c4cc(C)ccc4OC)CC3)cc12 [Example I-515] | < 100
COc1ccccc1-c1cc(C2=CCCN(C(=O)CCn3ccnn3)C2)c(F)c2[nH]c(C(=O)N3CCc4cnn(C)c4C3)cc12 [Example I-516] | < 100
CCc1nc(C)ccc1-c1cc(C(=O)N2CCN(c3ncc(F)cc3OC)CC2)cc2cc(C3=CCCN(C(=O)CCn4ccnn4)C3)n(CC3CC3)c12 [Example I-517] | < 100
COc1ccccc1-c1cc(C2=CCCN(C(=O)CCn3ccnn3)C2)c(F)c2[nH]c(C(=O)N3CCc4c(cnn4C)C3)cc12 [Example I-518] | < 100
CCc1cc(C)ncc1-c1cc(C2=CCCN(C(=O)CCn3ccnn3)C2)c(F)c2[nH]c(C(=O)N3CCN(c4nccnc4OC)CC3)cc12 [Example I-519] | < 100
COc1ccccc1-c1cc(C(=O)N2CCN(c3ncc(F)cc3OC)CC2)cc2cc(C3=CCCN(C(=O)CCn4ccnn4)C3)n(CC(C)C)c12 [Example I-521] | < 100
CCc1nc(C)ccc1-c1cc(C(=O)N2CCN(c3ncc(F)cc3OC)CC2)cc2cc(C3=CCCN(C(=O)CCn4cccn4)C3)n(CC3CC3)c12 [Example I-522] | < 100
CCc1nc(C)ccc1-c1cc(C(=O)N2CCN(c3ncc(F)cc3OC)CC2)cc2cc(C3=CCCN(C(=O)CCc4nccs4)C3)n(CC3CC3)c12 [Example I-523] | < 100
CCc1nc(C)ccc1-c1cc(C(=O)N2CCN(c3ncc(F)cc3OC)CC2)cc2cc(C3=CCCN(C(=O)CCn4ccnn4)C3)n(CC(C)C)c12 [Example I-524] | < 100
CCc1cc(C)ncc1-c1cc(C2=CCCN(C(=O)CCc3nccs3)C2)c(F)c2[nH]c(C(=O)N3CCN(c4ncc(F)cc4OC)CC3)cc12 [Example I-525] | < 100
CCc1cc(C)ncc1-c1cc(C2=CCCN(C(=O)CCc3nccs3)C2)c(F)c2[nH]c(C(=O)N3CCN(c4nc(C)ccc4OC)CC3)cc12 [Example I-526] | < 100
CCc1nc(C)ccc1-c1cc(C(=O)N2CCN(c3ncc(F)cc3OC)CC2)cc2cc(C3=CCCN(C(=O)CCC(=O)O)C3)n(CC3CC3)c12 [Example I-527] | < 100
CCc1cc(C)ncc1-c1cc(C2=CCCN(C(=O)CCn3ccnn3)C2)c(F)c2[nH]c(C(=O)N3Cc4cnn(CC)c4C3)cc12 [Example I-529] | < 100
CCn1ncc2c1CN(C(=O)c1cc(-c3ccccc3OC)c3c(c1)cc(C1=CCCN(C(=O)CCn4ccnn4)C1)n3CC1CC1)C2 [Example I-530] | < 100
CCc1cc(C)ncc1-c1cc(C2=CCCN(C(=O)CCn3ccnn3)C2)c(F)c2[nH]c(C(=O)N3Cc4cnn(C)c4C3)cc12 [Example I-531] | < 100
COc1cc(F)cnc1N1CCN(C(=O)c2cc3c(C(F)F)cc(C4=CCCN(C(=O)CCn5ccnn5)C4)c(F)c3[nH]2)CC1 [Example I-532] | < 100
CCc1cc(C)ncc1-c1cc(C(=O)N2CCN(c3ncc(F)cc3OC)CC2)cc2cc(C3=CCCN(C(=O)CCn4ccnn4)C3)n(CC3CC3)c12 [Example I-533] | < 100

Structure (SMILES) | IC50 [nM]
CCc1nc(C)ccc1-c1cc(C(=O)N2CCN(c3ccc(F)cc3OC)CC2)cc2cc(C3=CCCN(C(=O)CCn4ccnn4)C3)n(CC3CC3)c12 [Example I-534] | > 100000
CCc1nc(C)ccc1-c1cc(C(=O)N2Cc3cnn(CC)c3C2)cc2cc(C3=CCCN(C(=O)CCn4ccnn4)C3)n(CC3CC3)c12 [Example I-535] | > 100000
CCc1cc(C)ncc1-c1cc(C2=CCCN(C(=O)CCn3ccnn3)C2)c(F)c2[nH]c(C(=O)N3CCN(C4CC4)CC3)cc12 [Example I-536] | < 100
CCc1cc(C)ncc1-c1cc(C2=CCCN(C(=O)CCn3cccn3)C2)c(F)c2[nH]c(C(=O)N3Cc4cnn(CC)c4C3)cc12 [Example I-537] | < 100
CCc1cc(C)ncc1-c1cc(C2=CCCN(C(=O)CCc3nccs3)C2)c(F)c2[nH]c(C(=O)N3Cc4cnn(CC)c4C3)cc12 [Example I-538] | < 100
CCc1nc(C)ccc1-c1cc(C(=O)N2CCN(c3ncc(F)cc3OC)CC2)cc2cc(C3=CCCN(C(=O)C(C)C(=O)O)C3)n(CC3CC3)c12 (stereo not drawn) [Example I-539] | < 100
CCc1cn[nH]c1N1CCN(C(=O)c2cc3c(-c4cnccc4OC)cc(C4=CCCN(C(=O)CCn5ccnn5)C4)c(F)c3[nH]2)CC1 [Example I-540] | < 100
COc1ccccc1-c1cc(C2=CCCN(C(=O)CCn3ccnn3)C2)c(F)c2[nH]c(C(=O)N3Cc4ncn(C)c4C3)cc12 [Example I-541] | < 100
CCc1cnccc1-c1cc(C(=O)N2CCN(c3ncc(F)cc3OC)CC2)cc2cc(C3=CCCN(C(=O)CCn4ccnn4)C3)n(CC3CC3)c12 [Example I-542] | > 100000
CCn1nccc1-c1cc(C(=O)N2Cc3cnn(CC)c3C2)cc2cc(C3=CCCN(C(=O)CCn4ccnn4)C3)n(CC3CC3)c12 [Example I-544] | < 100
CCc1ccc(-c2cc(C(=O)N3CCN(c4ncc(F)cc4OC)CC3)cc3cc(C4=CCCN(C(=O)C5CC5C(=O)O)C4)n(CC4CC4)c23)c(C)n1 (stereo not drawn) [Example I-545] | < 100
CCc1nc(C)ccc1-c1cc(C(=O)N2CCN(c3nc(C)c(F)cc3OC)CC2)cc2cc(C3=CCCN(C(=O)CCn4ccnn4)C3)n(CC3CC3)c12 [Example I-546] | > 100000
CCc1nc(C)ccc1-c1cc(C(=O)N2CCN(C3CC3)CC2)cc2c(F)c(C3=CCCN(C(=O)CCn4ccnn4)C3)n(CC3CC3)c12 [Example I-548] | > 100000
CCc1nc(C)ccc1-c1cc(C(=O)N2Cc3cnn(CC)c3C2)c(F)c2cc(C3=CCCN(C(=O)CCn4ccnn4)C3)n(CC3CC3)c12 [Example I-549] | > 100000
CCc1ccc(-c2cc(C(=O)N3CCN(c4ncc(F)cc4OC)CC3)cc3cc(C4=CCCN(C(=O)C5CC5C(=O)O)C4)n(CC4CC4)c23)c(C)n1 (stereo not drawn) [Example I-550] | > 100000
CNc1ccc(-c2cc(C3=CCCN(C(=O)C4Cc5ccccc5CN4C=O)C3)cc3[nH]c(C(=O)N(C)C)cc23)cc1 (stereo not drawn) [Example I-551] | < 100
COc1ccccc1-c1cc(C2=CCCN(C(C)=O)C2)c(F)c2sc(C(=O)N(C)C)cc12 [Example I-552] | 100 to 1000
COc1ccccc1-c1cc(C2=CCCN(C(C)=O)C2)c(F)c2[nH]c(C(=O)N3CCN(c4ncccc4OC)CC3)cc12 [Example I-553] | 100 to 1000
COc1cnccc1-c1cc(C2=CCCN(C(C)=O)C2)c(F)c2sc(C(=O)N(C)C)cc12 [Example I-554] | 100 to 1000
